The compounds below were run against T1, human ferroportin (Fpn) (Homo sapiens, UniProt Q9NP59) (assay: Ferroportin internalisation assay (inhibition of hepcidin-induced internalisation of Fpn in MDCK-FPN-HaloTag cells)). Settings: 100 nM hepcidin, overnight incubation, 11 concentrations 0.04 to 40 μM.
T1 construct: expressed in transfected cells
T1 sequence (Q9NP59 1-571): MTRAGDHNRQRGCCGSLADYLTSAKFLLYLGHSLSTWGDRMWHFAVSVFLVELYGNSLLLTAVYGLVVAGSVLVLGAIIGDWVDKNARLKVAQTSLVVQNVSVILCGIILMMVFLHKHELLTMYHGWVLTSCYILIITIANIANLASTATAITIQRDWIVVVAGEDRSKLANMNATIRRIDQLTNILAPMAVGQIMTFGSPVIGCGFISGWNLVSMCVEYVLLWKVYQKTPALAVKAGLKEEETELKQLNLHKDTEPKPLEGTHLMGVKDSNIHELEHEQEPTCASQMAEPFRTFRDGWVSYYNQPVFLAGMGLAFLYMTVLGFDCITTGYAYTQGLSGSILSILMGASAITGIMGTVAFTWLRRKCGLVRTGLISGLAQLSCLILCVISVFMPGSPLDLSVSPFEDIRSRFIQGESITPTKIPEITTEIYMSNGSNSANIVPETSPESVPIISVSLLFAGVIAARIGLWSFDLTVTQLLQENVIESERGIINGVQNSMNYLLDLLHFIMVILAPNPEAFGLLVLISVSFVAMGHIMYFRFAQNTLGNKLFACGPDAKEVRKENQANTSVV
Assay type: cell-based
Description: The antagonistic effect against hepcidin of the pyrimidine and triazine compounds of the present invention was determined by means of the ferroportin internalisation assay described below.
Low molecular weight organic compounds which counteract the biological effects of hepcidin on its receptor, the iron exporter ferroportin (Fpn) were identified on the basis of their ability to inhibit hepcidin-induced internalisation of Fpn in living cells. A stable cell line (Madin-Darby Canine Kidney, MDCK) was produced for this purpose to express constitutively human ferroportin which is fused recombinantly with a fluorescent reporter protein (HaloTag®, Promega Corp.) at its C terminus. The internalisation of Fpn was monitored by marking these cells with fluorescent ligands (HaloTag® TMR, tetramethylrhodamine) which attach themselves covalently to the HaloTag reporter gene fused with the Fpn. […] Optimised image analysis algorithms were used to detect the cell surface and to quantify the corresponding membrane fluorescence associated with the Fpn-HaloTag fusion protein.

Compared with COc1cnc(-c2ccccn2)nc1N(C)Cc1ccccc1 [Example 24, Benzyl-(5-methoxy-2-pyridin-2-yl-pyrimidin-4-yl)-methyl-amine], COc1cnc(CN)nc1NC(C)C [Example 50, (2-Aminomethyl-5-methoxy-pyrimidin-4-yl)-isopropyl-amine] is lower in IC50: over 50 µM for the first, under 50 µM for the second.

Same assay, conditions: 10 μM substance, 100 nM hepcidin, inhibition of Fpn internalisation, read-out: I [%] (Median Inhibition [%] at 10 μM substance conc.)

Compared with COc1cnc(-c2ccccn2)nc1NC(C)C [Example 1, Isopropyl-(5-methoxy-2-pyridin-2-yl-pyrimidin-4-yl)-amine], Cc1nc(-c2ccccn2)nc(NCCNc2ccc(C(F)(F)F)cn2)c1Cl [Example 4, N-(5-Chloro-6-methyl-2-pyridin-2-yl-pyrimidin-4-yl)-N′-(5-trifluoromethyl-pyridin-2-yl)-ethane-1,2-diamine] is lower in inhibition at 10 µM: over 50% for the first, under 50% for the second.

Cc1nc(-c2ccccn2)nc(NCCNc2cc(C(F)(F)F)ccn2)c1Cl [Example 2, N-(5-Chloro-6-methyl-2-pyridin-2-yl-pyrimidin-4-yl)-N′-(4-trifluoromethyl-pyridin-2-yl)-ethane-1,2-diamine] and Nc1nc(-c2ccccn2)nc(N)c1Cc1ccccc1F [Example 3, 5-(2-Fluoro-benzyl)-2-pyridin-2-yl-pyrimidine-4,6-diamine] cannot be ordered by inhibition at 10 µM: under 50% for the first, under 50% for the second.

Oc1cccc(/C=N/Nc2cc(N3CCOCC3)nc(N3CCOCC3)n2)c1 [Example 5, 3-[(2,6-Dimorpholin-4-yl-pyrimidin-4-yl)-hydrazonomethyl]-phenol] and Oc1ccccc1/C=N/Nc1cc(N2CCOCC2)nc(N2CCOCC2)n1 [Example 7, 2-[(2,6-Dimorpholin-4-yl-pyrimidin-4-yl)-hydrazonomethyl]-phenol] cannot be ordered by inhibition at 10 µM: over 50% for the first, over 50% for the second.

First: Cc1nc(N/N=C/c2ccc(O)cc2O)cc(N2CCOCC2)n1 [Example 6, 4-[(2-Methyl-6-morpholin-4-yl-pyrimidin-4-yl)-hydrazonomethyl]-benzene-1,3-diol]
Second: C/C(=N\Nc1cc(N2CCOCC2)nc(C)n1)c1ccc(F)cc1 [Example 8, N-[1-(4-Fluoro-phenyl)-ethylidene]-N′-(2-methyl-6-morpholin-4-yl-pyrimidin-4-yl)-hydrazine]
The inhibition at 10 µM of the first is higher: over 50% for the first, under 50% for the second.

Going from COc1ccc(O)c(/C=N/Nc2nc(N3CCOCC3)nc(N3CCOCC3)n2)c1 [Example 9, 2-[(4,6-Dimorpholin-4-yl-[1,3,5]triazin-2-yl)-hydrazonomethyl]-4-methoxy-phenol] to Cc1ccc2cc(Nc3nc(N4CCOCC4)nc(N4CCOCC4)n3)ccc2n1 [Example 12, (4,6-Dimorpholin-4-yl-[1,3,5]triazin-2-yl)-(2-methyl-quinolin-6-yl)-amine], the inhibition at 10 µM falls from over 50% to under 50%.

First: c1ccc(N(c2ccccc2)c2nc(N3CCOCC3)nc(-n3ccnc3)n2)cc1 [Example 10, (4-Imidazol-1-yl-6-morpholin-4-yl-[1,3,5]triazin-2-yl)-diphenyl-amine]
Second: CN(c1ccccc1)c1nc(N2CCOCC2)nc(-n2ccnc2)n1 [Example 11, (4-Imidazol-1-yl-6-morpholin-4-yl-[1,3,5]triazin-2-yl)-methyl-phenyl-amine]
The inhibition at 10 µM of the first is higher: over 50% for the first, under 50% for the second.

From US20120202806A1, “Novel Pyrimidine- And Triazine-Hepcidine Antagonists” (VIFOR (INTERNATIONAL) AG, priority 2009, published 2012)
